From ChEMBL document CHEMBL1201862, “PubChem BioAssay data set” (2004)
Active and inactive are the calls of the source.

Experiments:
[1] = THP-1 cell cytotoxicity, dose response, cytotoxicity control for Vif-APOBEC3G degradation inhibitor project, THP-1 cells (AID 1117359); format: functional; settings: Human immunodeficiency virus 1, THP-1
Protein Tat = biological target: T1, Protein Tat (Human immunodeficiency virus type 1 group M subtype B (isolate HXB2)(HIV-1), UniProt P04608); format: functional;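 also: tat binding to TAR RNA read out by fluorescence polarization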
T1 sequence (P04608 whole entry): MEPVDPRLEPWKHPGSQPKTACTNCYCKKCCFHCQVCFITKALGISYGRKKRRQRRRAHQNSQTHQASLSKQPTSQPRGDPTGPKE

[2] = biological target: Aryl hydrocarbon receptor (Homo sapiens, UniProt P35869); assay: Luminescence-based cell-based high throughput dose response assay for activators of the Aryl Hydrocarbon Receptor (AHR). [Related pubchem assays: 2796 (Primary screen (AHR activators in singlicate)), 2845 (Confirmation screen (AHR activators in triplicate)), 434939 (Counterscreen (PXR activators in triplicate)), 2804 (Summary (AHR activators))]; format: ADME
Aryl hydrocarbon receptor, sequence (P35869 whole entry): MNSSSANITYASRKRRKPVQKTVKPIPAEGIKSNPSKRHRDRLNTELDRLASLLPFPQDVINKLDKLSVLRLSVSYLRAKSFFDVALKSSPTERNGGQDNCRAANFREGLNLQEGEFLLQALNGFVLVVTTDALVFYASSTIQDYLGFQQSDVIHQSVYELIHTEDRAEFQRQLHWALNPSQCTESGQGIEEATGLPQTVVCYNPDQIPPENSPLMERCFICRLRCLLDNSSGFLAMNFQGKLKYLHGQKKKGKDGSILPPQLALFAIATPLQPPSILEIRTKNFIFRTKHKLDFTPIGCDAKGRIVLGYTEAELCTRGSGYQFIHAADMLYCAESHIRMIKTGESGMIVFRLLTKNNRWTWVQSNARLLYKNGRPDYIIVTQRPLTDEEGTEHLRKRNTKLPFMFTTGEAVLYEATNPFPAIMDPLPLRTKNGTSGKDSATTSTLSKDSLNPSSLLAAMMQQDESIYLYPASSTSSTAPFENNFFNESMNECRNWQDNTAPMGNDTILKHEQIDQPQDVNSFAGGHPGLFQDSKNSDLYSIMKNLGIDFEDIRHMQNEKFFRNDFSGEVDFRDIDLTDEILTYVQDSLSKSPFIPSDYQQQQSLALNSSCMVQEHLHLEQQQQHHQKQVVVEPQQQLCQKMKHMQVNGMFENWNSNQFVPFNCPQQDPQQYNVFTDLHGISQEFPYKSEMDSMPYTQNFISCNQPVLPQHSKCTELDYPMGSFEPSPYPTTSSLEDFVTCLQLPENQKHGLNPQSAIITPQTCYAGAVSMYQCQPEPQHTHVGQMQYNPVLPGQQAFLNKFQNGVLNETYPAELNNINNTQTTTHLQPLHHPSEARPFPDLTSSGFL

[3] = Luminescence Cell-Based Dose Response HTS to Identify Activators of Luciferase Translation or Activity in H4 […] Cells. [Related pubchem assays: 1829 (Project Summary), 1814 (Primary HTS)]; format: functional
H4 = assay: Luminescence Cell-Based Dose Response HTS to Identify Activators of 5'UTR Stem-Loop Driven Prion Protein mRNA Translation in H4 Neuroglioblastoma Cells. [Related pubchem assays: 1829 (Project Summary), 1814 (Primary HTS)]; format: functional; settings: Homo sapiens
Bcl-2-related protein A1 [4] = biological target: T2, Bcl-2-related protein A1 (Mus musculus, UniProt Q07440); assay: Bfl-1 inhibitors blocking BH3 peptide binding, confirmation, biochemical, TR-FRET, mouse Bfl-1 (AID 621);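 also: TR-FRET binding of GST-Bfl-1 to FITC-labelled Bid peptide via terbium antibody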
T2 sequence (Q07440 whole entry): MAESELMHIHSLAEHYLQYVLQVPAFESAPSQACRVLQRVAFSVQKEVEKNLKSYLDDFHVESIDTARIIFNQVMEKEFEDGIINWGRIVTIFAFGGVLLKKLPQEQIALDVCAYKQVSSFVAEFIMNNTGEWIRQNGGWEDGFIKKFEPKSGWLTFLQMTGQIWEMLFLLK

Bcl-2-related protein A1 [5] = biological target: T2, Bcl-2-related protein A1; assay: Bfl-1 binding inhibitors, SAR follow-up, biochemical, fluorescence polarization (AID 1070)
[6] = biological target: Lytic switch protein BZLF1 (Epstein-Barr virus (strain B95-8) (HHV-4) (Human herpesvirus 4), UniProt P03206); assay: EBV ZTA inhibitors, dose response, counter-screen for EBNA-1 inhibitor project, biochemical, fluorescence polarization, Epstein-Barr virus, 1536-well (AID 2377); set-up: species or system human gammaherpesvirus 4;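 also: fluorescence polarization of Cy5-labelled ZRE DNA probe bound by purified Zta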
Lytic switch protein BZLF1, sequence (P03206 whole entry): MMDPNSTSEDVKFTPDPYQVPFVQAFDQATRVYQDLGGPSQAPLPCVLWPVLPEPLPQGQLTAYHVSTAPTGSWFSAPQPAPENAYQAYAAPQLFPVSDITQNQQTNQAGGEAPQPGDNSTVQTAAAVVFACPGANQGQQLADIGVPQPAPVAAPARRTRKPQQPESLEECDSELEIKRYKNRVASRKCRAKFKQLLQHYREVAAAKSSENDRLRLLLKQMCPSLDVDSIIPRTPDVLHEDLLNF

[7] = biological target: Epstein-Barr nuclear antigen 1 (Epstein-Barr virus (strain B95-8) (HHV-4) (Human herpesvirus 4), UniProt P03211); assay: EBNA-1 inhibitors, dose response, biochemical, fluorescence polarization, 1536-well (AID 2381); set-up: species or system human gammaherpesvirus 4;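 also: fluorescence polarization of a Cy5 DNA probe bound by EBNA-1 protein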
Epstein-Barr nuclear antigen 1, sequence (P03211 whole entry): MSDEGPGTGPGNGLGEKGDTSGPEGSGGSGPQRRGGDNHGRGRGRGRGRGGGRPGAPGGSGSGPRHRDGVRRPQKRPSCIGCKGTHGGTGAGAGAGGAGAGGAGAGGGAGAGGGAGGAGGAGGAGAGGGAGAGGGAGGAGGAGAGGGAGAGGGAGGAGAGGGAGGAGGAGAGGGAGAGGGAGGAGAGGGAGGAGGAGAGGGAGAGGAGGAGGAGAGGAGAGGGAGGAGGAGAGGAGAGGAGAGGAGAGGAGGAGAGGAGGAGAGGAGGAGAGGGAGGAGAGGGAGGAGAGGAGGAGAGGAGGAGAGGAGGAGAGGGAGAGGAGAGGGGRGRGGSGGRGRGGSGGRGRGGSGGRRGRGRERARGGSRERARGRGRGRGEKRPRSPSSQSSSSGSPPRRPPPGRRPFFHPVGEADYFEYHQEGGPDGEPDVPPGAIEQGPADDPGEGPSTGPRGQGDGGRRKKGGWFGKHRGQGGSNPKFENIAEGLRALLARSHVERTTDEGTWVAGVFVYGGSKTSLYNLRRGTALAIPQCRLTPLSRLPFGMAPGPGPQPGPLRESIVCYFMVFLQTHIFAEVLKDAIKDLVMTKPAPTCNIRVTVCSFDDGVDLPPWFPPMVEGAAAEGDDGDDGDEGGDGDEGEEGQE

[8] = biological target: Sphingosine 1-phosphate receptor 2 (Homo sapiens, UniProt O95136); assay: Dose Response Cell Based Assay for Antagonists of the S1P2 Receptor. [Related pubchem assays: 856, 736 ]; format: functional
Sphingosine 1-phosphate receptor 2, sequence (O95136 whole entry): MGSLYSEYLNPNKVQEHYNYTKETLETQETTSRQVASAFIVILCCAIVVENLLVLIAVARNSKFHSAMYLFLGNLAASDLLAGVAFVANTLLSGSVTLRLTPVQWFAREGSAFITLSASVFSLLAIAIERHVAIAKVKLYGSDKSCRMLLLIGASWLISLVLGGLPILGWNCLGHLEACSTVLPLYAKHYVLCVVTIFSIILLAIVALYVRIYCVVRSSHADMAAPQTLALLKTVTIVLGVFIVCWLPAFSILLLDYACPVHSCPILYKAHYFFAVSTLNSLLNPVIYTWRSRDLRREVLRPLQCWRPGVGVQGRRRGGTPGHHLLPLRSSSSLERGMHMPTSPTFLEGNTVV

[9] = M. tuberculosis H37Rv growth inhibitors, H37Rv strain (AID 1626); format: functional
cells = format: functional
[10] = microbe, parasite or virus in culture; format: functional; settings: Mycobacterium tuberculosis
Cytochrome P450 3A4 = Cytochrome P450 3A4 (Homo sapiens, UniProt P08684); settings: Potency;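 also: confirmatory qHTS run detecting inhibitors and substrates of CYP3A4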
Cytochrome P450 3A4, sequence (P08684 whole entry): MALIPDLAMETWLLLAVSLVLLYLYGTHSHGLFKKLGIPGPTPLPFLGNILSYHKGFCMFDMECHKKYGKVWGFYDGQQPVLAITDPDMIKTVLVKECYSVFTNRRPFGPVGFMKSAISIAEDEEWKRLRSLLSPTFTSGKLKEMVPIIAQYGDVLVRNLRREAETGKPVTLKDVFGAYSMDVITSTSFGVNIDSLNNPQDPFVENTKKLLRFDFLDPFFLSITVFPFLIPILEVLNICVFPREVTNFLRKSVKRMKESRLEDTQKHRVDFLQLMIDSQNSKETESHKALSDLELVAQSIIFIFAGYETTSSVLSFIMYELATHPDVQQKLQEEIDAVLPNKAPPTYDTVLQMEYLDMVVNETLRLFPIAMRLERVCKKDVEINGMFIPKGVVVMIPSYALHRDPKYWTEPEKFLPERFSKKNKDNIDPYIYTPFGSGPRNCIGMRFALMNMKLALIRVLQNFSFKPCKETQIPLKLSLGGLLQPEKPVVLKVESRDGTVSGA

Cytochrome P450 2C19 = Cytochrome P450 2C19 (Homo sapiens, UniProt P33261); assay: qHTS Assay for Inhibitors and Substrates of Cytochrome P450 2C19. [Related pubchem assays: 410 ]; format: ADME; settings: read-out: Potency
Cytochrome P450 2C19, sequence (P33261 whole entry): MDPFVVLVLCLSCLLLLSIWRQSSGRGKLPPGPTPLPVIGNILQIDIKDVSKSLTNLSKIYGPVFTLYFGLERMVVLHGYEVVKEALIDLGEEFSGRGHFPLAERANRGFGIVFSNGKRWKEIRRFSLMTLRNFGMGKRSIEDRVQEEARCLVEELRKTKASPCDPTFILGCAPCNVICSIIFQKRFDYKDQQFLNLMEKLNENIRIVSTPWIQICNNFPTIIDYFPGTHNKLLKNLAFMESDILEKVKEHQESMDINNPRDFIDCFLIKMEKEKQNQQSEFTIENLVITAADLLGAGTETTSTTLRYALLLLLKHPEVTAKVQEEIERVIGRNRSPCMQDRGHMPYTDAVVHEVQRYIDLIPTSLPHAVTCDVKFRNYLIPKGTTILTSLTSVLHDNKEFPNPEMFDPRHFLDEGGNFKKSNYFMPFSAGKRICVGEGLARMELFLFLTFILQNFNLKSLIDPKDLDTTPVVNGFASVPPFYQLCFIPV

[11] = inhibitors of Bluetongue virus cytopathic effect, confirmation, arbovirus, BSR cells (AID 1250); format: functional;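 also: protection from viral cytopathic effect measured as cell viability by ATP luminescence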
[12] = biological target: Peroxisome proliferator-activated receptor gamma/Nuclear receptor corepressor 2 (Homo sapiens, UniProt P37231+Q9Y618); assay: Counterscreen for NR2E3 inverse agonists: TR-FRET-based biochemical high throughput dose response assay to identify inverse agonists of the interaction between peroxisome proliferator-activated receptor gamma (PPARg) and nuclear receptor co-repressor 2 (NCOR2).; format: functional
[13] = biological target: Photoreceptor-specific nuclear receptor (Homo sapiens, UniProt Q9Y5X4); assay: NR2E3 inverse agonists, dose response, biochemical, TR-FRET (AID 463256); format: functional
Photoreceptor-specific nuclear receptor, sequence (Q9Y5X4 whole entry): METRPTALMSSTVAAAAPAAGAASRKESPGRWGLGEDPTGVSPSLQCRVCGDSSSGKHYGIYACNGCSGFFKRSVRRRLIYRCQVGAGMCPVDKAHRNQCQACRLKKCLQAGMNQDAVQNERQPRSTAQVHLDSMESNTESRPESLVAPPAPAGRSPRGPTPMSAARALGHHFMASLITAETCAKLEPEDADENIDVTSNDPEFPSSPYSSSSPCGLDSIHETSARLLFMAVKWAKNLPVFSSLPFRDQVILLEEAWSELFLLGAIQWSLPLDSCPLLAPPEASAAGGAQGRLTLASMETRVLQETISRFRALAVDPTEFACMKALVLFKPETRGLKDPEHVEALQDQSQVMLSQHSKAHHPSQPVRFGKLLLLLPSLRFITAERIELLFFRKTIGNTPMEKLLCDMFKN

[14] = biological target: T3, Mannose-6-phosphate isomerase (Homo sapiens, UniProt P34949); assay: human PMI inhibitors, high substrate, primary screen, biochemical, fluorescence intensity, high mannose 6-phosphate (AID 1220)
T3 sequence (P34949 whole entry): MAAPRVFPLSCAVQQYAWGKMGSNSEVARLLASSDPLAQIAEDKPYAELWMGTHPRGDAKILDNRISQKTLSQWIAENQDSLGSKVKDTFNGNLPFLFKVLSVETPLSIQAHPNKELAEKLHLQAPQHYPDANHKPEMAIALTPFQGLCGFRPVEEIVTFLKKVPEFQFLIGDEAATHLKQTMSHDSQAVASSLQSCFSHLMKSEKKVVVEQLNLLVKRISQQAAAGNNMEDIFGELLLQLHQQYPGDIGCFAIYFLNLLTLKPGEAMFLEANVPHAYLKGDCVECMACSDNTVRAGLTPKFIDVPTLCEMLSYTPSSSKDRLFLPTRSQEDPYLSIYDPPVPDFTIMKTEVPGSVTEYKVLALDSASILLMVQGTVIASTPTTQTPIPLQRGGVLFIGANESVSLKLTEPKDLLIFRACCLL

Protein RecA = biological target: T4, Protein RecA (Mycobacterium tuberculosis, UniProt P9WHJ3); assay: Fluorescence Cell-Free Homogeneous Dose Retest to Identify Inhibitors of RecA-Intein Splicing Activity. [Related pubchem assays (depositor defined):AID2097, AID2223, AID489010, AID492950]; format: functional
T4 sequence (P9WHJ3 whole entry): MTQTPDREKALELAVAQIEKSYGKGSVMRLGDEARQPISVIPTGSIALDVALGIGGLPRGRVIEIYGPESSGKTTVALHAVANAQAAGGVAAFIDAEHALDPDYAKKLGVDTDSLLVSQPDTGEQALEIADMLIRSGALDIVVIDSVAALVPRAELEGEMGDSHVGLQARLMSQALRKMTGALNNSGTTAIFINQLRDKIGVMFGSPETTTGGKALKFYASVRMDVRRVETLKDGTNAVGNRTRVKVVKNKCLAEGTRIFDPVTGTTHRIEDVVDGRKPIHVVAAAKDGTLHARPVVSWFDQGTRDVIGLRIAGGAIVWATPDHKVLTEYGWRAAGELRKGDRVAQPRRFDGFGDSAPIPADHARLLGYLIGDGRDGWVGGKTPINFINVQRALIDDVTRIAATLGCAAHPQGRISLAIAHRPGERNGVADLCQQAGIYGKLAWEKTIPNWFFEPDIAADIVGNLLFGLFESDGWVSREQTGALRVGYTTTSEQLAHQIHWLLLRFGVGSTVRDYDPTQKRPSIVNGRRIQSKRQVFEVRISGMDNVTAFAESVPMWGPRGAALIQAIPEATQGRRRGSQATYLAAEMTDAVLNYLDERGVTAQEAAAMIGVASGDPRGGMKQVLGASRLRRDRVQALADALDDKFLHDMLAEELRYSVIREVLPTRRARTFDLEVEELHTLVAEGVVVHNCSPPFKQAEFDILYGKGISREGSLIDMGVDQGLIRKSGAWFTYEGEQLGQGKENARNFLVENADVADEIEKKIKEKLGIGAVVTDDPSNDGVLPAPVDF

[15] = HeLa 2N DNA content increase, dose response, cell-based, IC50 (AID 1117349); format: functional
[16] = Dose-response inhibition of insulin secretion in a rat insulinoma line at 5 mM glucose (AID 1117331); format: functional, cell-based; settings: INS-1E
[17] = HeLa 4N DNA content increase, dose response, cell-based, IC50 (AID 1117351); format: functional
[18] = P. falciparum 3D7-ScDHODH growth inhibitors, dose response, SYBR Green, dry powder samples (AID 1159570); format: functional, cell-based;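 also: parasite growth measured after 72 hours of compound exposure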
[19] = P. falciparum Dd2 growth inhibitors, dose response, SYBR Green, cherry-picked samples (AID 1159567); format: functional, cell-based
[20] = HepG2 cell cytotoxicity, dose response, cytotoxicity control, cherry-picked samples (AID 1159577); format: functional, cell-based
[21] = P. falciparum Dd2 growth inhibitors, dose response, SYBR Green, dry powder samples (AID 1159566); format: functional, cell-based;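 also: potency for growth inhibition with lower SYBR green DNA signal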
[22] = P. falciparum ATP4 D1247Y mutant growth inhibitors, dose response, NITD609-resistant line, SYBR Green, dry powder (AID 1159571); format: functional, cell-based;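 also: parasites synchronized at ring stage by sorbitol before testing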
[23] = HepG2 cell cytotoxicity, dose response, cytotoxicity control, plate reader, dry powder samples (AID 1159569); format: functional, cell-based;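 also: inhibitor potency with signal falling toward the positive control level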

Cc1nc2cc(NN=C3C(=O)CCCC3=O)ccc2s1
CC50 [1]: > 40 µM (active)
IC50 (Protein Tat): > 50 µM (active)

O=C(NC1CCCC1)c1cc2c(ccc3ccccc32)o1
EC50 [2]: 2.8 µM (active)
EC50 [3]: 1.94 µM (active)
EC50 (H4): 24.1 µM (active)

Clc1ccc(-n2nnc(-c3cc4ccccc4nc3Cl)n2)cc1Cl
IC50 (Bcl-2-related protein A1 [4]): > 100 µM (not active)
IC50 (Bcl-2-related protein A1 [5]): > 100 µM (not active)

COc1ccc(Cn2cccc(NC(=O)Nc3cccc(C#N)c3)c2=O)cc1
IC50 [6]: > 111 µM (not active)
IC50 [7]: 9.07 µM (active)

COc1ccc(-n2c(SCC(=O)NCC3CCCO3)nc3c4ccccc4nc-3c2O)cc1 (centres undefined)
IC50 [6]: > 111 µM (not active)
IC50 [7]: 9.89 µM (active)

NC(=O)c1sc2cc(C(F)(F)F)cnc2c1-c1cccs1
IC50 [8]: > 30 µM (not active)

O=C(Nc1ccccc1Cl)Oc1ccc2ccccc2c1
IC50 [9]: > 100 µM (active)

O=[N+]([O-])c1cnc(Nc2ccc(Cl)cn2)c([N+](=O)[O-])c1
EC50 [2]: 1.29 µM (active)
IC50 (cells): 4.17 µM (active)
CC50 [10]: > 40 µM (active)

CCC/C=C/C1C(=O)C2OC2C2(OCC(CC)(CC)CO2)C1CO (centres undefined)
AC50 (Cytochrome P450 3A4): 3.98 µM (inconclusive)
AC50 (Cytochrome P450 2C19): 0.004 µM (inconclusive)

Cc1nc2c(c3c1[nH]c1ccccc13)C(O)CC(C)(C)C2 (centres undefined)
IC50 [11]: 21.9 µM (active)

CS(=O)(=O)N(CC(=O)NC1CCCCC1)Cc1ccc(F)cc1
IC50 [12]: > 39.8 µM (not active)
IC50 [13]: > 39.8 µM (not active)

CC1CCC2C(=O)N3C(CCC(C)[C@@H]3c3cccc(N4CCOCC4)c3)C(=O)N2C1c1cccc(Br)c1 (some centres undefined)
AC50 (Cytochrome P450 2C19): 7.94 µM (inconclusive)

COc1ccc(/N=C/C2=C(O)c3ccccc3CC2)cc1
IC50 [14]: < 0.391 µM (not active)
EC50 (Protein RecA): 18.6 µM (active)
IC50 [9]: > 100 µM (active)

CCN(CC)CCNC(=O)C1C(C)=NC(/C=C2\C(=O)Nc3ccc(F)cc32)=C1C (centres undefined)
IC50 [15]: > 10 µM (inactive)
IC50 [16]: > 33.3 µM (inactive)
IC50 [17]: > 10 µM (inactive)

COc1cccc(-c2ccc3c(c2)[C@@H]2[C@@H](CCN2C(=O)C2CCCC2)[C@@H](CO)N3)c1
AC50 [18]: 2.57 µM (active)
AC50 [19]: 2.25 µM (active)
AC50 [20]: > 39 µM (inactive)
AC50 [21]: 2.12 µM (active)
AC50 [22]: 1.65 µM (active)
AC50 [23]: 32.9 µM (active)
